ChEMBL document CHEMBL4706557, “Synthesis and in vitro and in vivo biological evaluation of novel derivatives of flexicaulin A as antiproliferative agents” (Eur J Med Chem, 2020)
Active and inactive are the calls of the source. The calls are words filed in the database; no cut-off is given here.

How the values were obtained:
[1] = system: ECa-109 cell line; assay: Antitumor activity against human EC109 cells xenografted in nude BALB/c mouse assessed as reduction in tumor weight at 40 mg/kg, ip administered every day for 14 days; format: functional, organism-based; conditions: time 14.0 day
[2] = system: TE-1; assay: Antiproliferative activity against human TE-1 cells assessed as inhibition of cell growth incubated for 72 hrs by SRB assay; format: functional, cell-based; conditions: TE-1, 72 h
[3] = system: MCF7; assay: Antiproliferative activity against human MCF7 cells assessed as inhibition of cell growth incubated for 72 hrs by SRB assay; format: functional, cell-based; conditions: MCF7, 72 h
[4] = system: ECa-109 cell line; assay: Induction of apoptosis in human EC-109 cells assessed as apoptotic rate at 0.75 uM after 24 hrs by Annexin V-FITC/propidium iodide staining based flow cytometry (reference value: 5.3 %); format: functional
[5] = system: ECa-109 cell line; assay: Induction of apoptosis in human EC-109 cells assessed as apoptotic rate at 3 uM after 48 hrs by Annexin V-FITC/propidium iodide staining based flow cytometry (reference value: 3.2 %); format: functional
[6] = system: ECa-109 cell line; assay: Induction of apoptosis in human EC109 cells assessed as increase in BimS expression after 24 hrs by Western blot analysis; format: functional, cell-based
[7] = system: ECa-109 cell line; assay: Induction of apoptosis in human EC109 cells assessed as increase in intracellular ROS level at 1.5 to 3 uM incubated for 24 hrs by DCFH-DA staining based flow cytometry analysis; format: functional, cell-based; conditions: dose 1.5-3 µM
[8] = system: ECa-109; assay: Inhibition of clone formation in human EC109 cells at 0.5 uM after 7 days in presence of N-acetylcysteine by crystal violet staining based assay; format: functional, cell-based; conditions: time 7.0 day
[9] = system: ECa-109 cell line; assay: Induction of morphological changes in human EC109 cells assessed as appearance of contracted and rounded cells; format: functional, cell-based
[10] = system: ECa-109 cell line; assay: Induction of morphological changes in human EC109 cells assessed as decrease in number of cells; format: functional, cell-based
[11] = system: ECa-109 cell line; assay: Induction of apoptosis in human EC109 cells assessed as increase in intracellular ROS level at 3 uM incubated for 24 hrs by DCFH-DA staining based flow cytometry analysis (reference value: 0.6 %); format: functional
[12] = system: ECa-109 cell line; assay: Induction of apoptosis in human EC-109 cells assessed as apoptotic rate at 3 uM after 24 hrs by Annexin V-FITC/propidium iodide staining based flow cytometry (reference value: 5.7 %); format: functional
[13] = system: ECa-109 cell line; assay: Induction of apoptosis in human EC-109 cells assessed as apoptotic rate at 3 uM after 48 hrs by Annexin V-FITC/propidium iodide staining based flow cytometry (reference value: 3.8 %); format: functional
[14] = system: ECa-109 cell line; assay: Induction of apoptosis in human EC-109 cells assessed as apoptotic rate at 3 uM preincubated with N-acetylcysteine for 4 hrs followed by compound addition and measured after 24 hrs by Annexin V-FITC/propidium iodide staining based flow cytometry (reference value: 5.7 %); format: functional
[15] = system: ECa-109 cell line; assay: Induction of apoptosis in human EC109 cells assessed as reduction in Bcl-2 expression at 3 uM incubated for 24 hrs in presence of N-acetylcysteine by Western blot analysis; format: functional, cell-based
[16] = system: ECa-109 cell line; assay: Induction of apoptosis in human EC109 cells assessed as increase in cleaved caspase 9 expression at 3 uM incubated for 24 hrs in presence of N-acetylcysteine by Western blot analysis; format: functional, cell-based
[17] = system: ECa-109 cell line; assay: Induction of apoptosis in human EC-109 cells xenografted in nude BALB/c mouse assessed as reduction in number of cells at 20 to 40 mg/kg, ip administered once daily for 14 days by H and E staining based histopathological analysis; format: functional, organism-based; conditions: dose 20-40 mg/kg, time 14.0 day
[18] = system: ECa-109 cell line; assay: Induction of apoptosis in human EC-109 cells xenografted in nude BALB/c mouse assessed as appearance of morphological changes at 20 to 40 mg/kg, ip administered once daily for 14 days by H and E staining based histopathological analysis; format: functional, organism-based; conditions: dose 20-40 mg/kg, time 14.0 day
[19] = system: ECa-109 cell line; assay: Induction of apoptosis in human EC-109 cells xenografted in nude BALB/c mouse assessed as apparent cellular loosening at 20 to 40 mg/kg, ip administered once daily for 14 days by H and E staining based histopathological analysis; format: functional, organism-based; conditions: dose 20-40 mg/kg, time 14.0 day
[20] = system: ECa-109 cell line; assay: Induction of apoptosis in human EC-109 cells xenografted in BALB/c mouse assessed as increase in cleaved caspase 3 in tumor tissue at 40 mg/kg, ip QD for 14 days by Western blotting analysis relative to control; format: functional, organism-based; conditions: time 14.0 day
[21] = system: ECa-109 cell line; assay: Induction of apoptosis in human EC-109 cells xenografted in BALB/c mouse assessed as increase in phosphorylated MKK4 in tumor tissue at 20 to 40 mg/kg, ip QD for 14 days by Western blotting analysis; format: functional, organism-based; conditions: dose 20-40 mg/kg, time 14.0 day
[22] = Toxicity in BALB/c mouse assessed as effect on WBC level at 20 mg/kg, ip administered once daily for 14 days (reference value: 4.42 +/- 0.79 10^9/L); format: organism-based; conditions: in vivo, 336 h, time 14 day
[23] = Toxicity in BALB/c mouse assessed as HCT at 20 mg/kg, ip administered once daily for 14 days (reference value: 49.08 +/- 1.56 %); format: organism-based; conditions: in vivo, 336 h, time 14 day
[24] = Toxicity in BALB/c mouse assessed as RDW at 20 mg/kg, ip administered once daily for 14 days (reference value: 14.18 +/- 0.26 %); format: organism-based; conditions: in vivo, 336 h, time 14 day
[25] = Toxicity in BALB/c mouse assessed as RDW at 40 mg/kg, ip administered once daily for 14 days (reference value: 14.18 +/- 0.26 %); format: organism-based; conditions: in vivo, 336 h, time 14 day

C=C1C(=O)[C@@]23[C@H](O)C[C@@H]4C(C)(C)CCC[C@@]4(COC(C)=O)[C@@H]2[C@@H](O)C[C@H]1[C@H]3OC(=O)c1ccc(CCl)cc1
inhibition [1]: Active | IC50 [2]: 270 nM | IC50 [3]: 350 nM | Activity [4]: 23.3% | Activity [5]: 97% | Activity [6]: Dose-dependent effect | Activity [7]: Active | inhibition [8]: inactive | Activity [9]: Active | Activity [10]: Active | Activity [11]: 47% | Activity [12]: 33.7% | Activity [13]: 88.2% | Activity [14]: 5.6% | Activity [15]: inactive | Activity [16]: inactive | Activity [17]: Active | Activity [18]: Active | Activity [19]: Active | Activity [20]: Active | Activity [21]: Active | Activity [22]: 5.02 10^9/L | Activity [23]: 46.67% | Activity [24]: 14.32% | Activity [25]: 14.73%
